Measured values as given in patent US9006487B2, “Amine-containing lipids and uses thereof” (Massachusetts Institute of Technology, priority 2005, dated 2015).
Where “and” joins values, the source holds several entries; their conditions need not be identical. Identical values can stand only once.

Tested on: cos-7 cells
Assay: DNA transfection: luciferase expression relative to Lipofectamine 2000
Assay type: cell-based
Conditions: 300 ng Luciferase DNA per well, luciferase assay after 48 hours
Protocol: 14,000 cos-7 cells (ATCC, Manassas, Va.) were seeded into each well of a solid white or clear 96 well plate (Corning-Costar, Kennebunk, Me.) and allowed to attached overnight in growth medium, composed of: 500 ml phenol red minus DMEM, 50 ml heat inactivated FBS, 5 ml penicillin/streptomycin (Invitrogen, Carlsbad, Calif.).
A small liquot of lipid was tranferred to an Eppendorf tube. Based on the mass of the lipid in the tube, sterile 25 mM sodium acetate buffer was added to each tube to yield a concentration of 60 mg/ml. The resulting mixture was vortexed for approximately 20 minutes until the lipid was fully dissolved. DNA was prepared based on 300 ng DNA per well of a 96-well plate. 291 μg of Lc DNA was dissolved in 9210 μl of 25 mM sodium acetate buffer. Aliquots of 30 μl of DNA solution were added to each well expect for the last column which was reserved for the Lipo2000 standard. For the last column of the plate, 61 μg of DNA was added to 1940 μl Optimem. 150 μl of media/Optimem was added to each well of plates. 50 μl of lipid solution was aliquoted into wells of robot plate. The following amounts were aliquoted to obtain the correct ratios of DNA to lipid:
In quadruplicate, 30 μl of lipid was aliquoted onto DNA in four rows for each ratio. For the Lipo2000 control (2.5 w/w ratio to DNA), 152.5 μg of Lipo sample was aliquoted into 1847.5 μl of Optimem. 30 μl of this solution was aliquoted onto DNA in the Optimem in the last columns of each plate. The plates were incubated for 15-20 minutes, and then 36.5 μl of lipid+DNA complexes was transferred into 150 μl of media/Optimem, then add to cells. The media was aspirated off the cells, and 105 μl of the lipid/DNA/media/Optimem solution was added to the cells. The luciferase assay was performed after 48 hours.
Luminescence was analyzed using bright-glo assay kits (Promega). Briefly, 100 μl of bright-glo solution was added to each well of the microtiter plate containing media and cells. Luminescence was measured using a Mithras Luminometer (Berthold, Oak Ridge, Tenn.). In some cases, a neutral density filter (Chroma, Brattleboro, Vt.) was used to prevent saturation of the luminometer. A standard curve for Luciferase was generated by titration of Luciferase enzyme (Promega) into growth media in white microtiter plates. Luciferase in ng per well are calculated for each of the lipids at 2.5 w/w, 5 w/w, 10 w/w, 15 w/w, 20 w/w, and 25 w/w lipid to DNA based on the standard curve.
The table below summarizes the data as a % of the luciferase activity obtained from the use of Lipofectamine 2000. The table indicates the best lipids for transfection.

| SMILES | Luciferase expression as a percentage of that achieved using Lipofectamine 2000 (lipid/DNA 2.5 w/w) | Luciferase expression as a percentage of that achieved using Lipofectamine 2000 (lipid/DNA 5 w/w) | Luciferase expression as a percentage of that achieved using Lipofectamine 2000 (lipid/DNA 10 w/w) | Luciferase expression as a percentage of that achieved using Lipofectamine 2000 (lipid/DNA 15 w/w) | Luciferase expression as a percentage of that achieved using Lipofectamine 2000 (lipid/DNA 20 w/w) | Luciferase expression as a percentage of that achieved using Lipofectamine 2000 (lipid/DNA 25 w/w) |
| --- | --- | --- | --- | --- | --- | --- |
| CCCCCCCCCCCCOC(=O)CCN(CCC(=O)OCCCCCCCCCCCC)CCN1CCOCC1 [LD90] | 0.5% and 0.4% | 0.4% | 0.4% | 0.6% and 0.4% | 0.4% and 0.5% | 0.4% and 0.5% |
| CCCCCCCCCCOC(=O)CCN(CCCCO)CCC(=O)OCCCCCCCCCC [LB28] | 0.1% | 0.1% | 0.1% | 0.1% | 0.1% | 0.1% |
| CCCCCCCCCCCCNC(=O)CCN(CCCN(CCO)CCO)CCC(=O)NCCCCCCCCCCCC [ND87] | 0.0% | 0.0% | 0.0% | 0.0% | 0.0% | 0.0% |
| CCCCCCCCCCCCCCOC(=O)CCN(CCCN(C)C)CCC(=O)OCCCCCCCCCCCCCC [LF80] | 2.5% | 35.1% | 35.5% | 34.3% | 19.9% | 14.8% |
| CCCCCCCCCCCCCOC(=O)CCN(CCC(=O)OCCCCCCCCCCCCC)CCN1CCOCC1 [LE90] | 0.5% | 0.3% | 0.4% | 0.4% | 0.4% | 0.4% |
| CCCCCCCCCCOC(=O)CCN(CCOCCO)CCC(=O)OCCCCCCCCCC [LB31] | 1.2% and 0.1% | 0.8% and 0.1% | 8.3% and 0.1% | 1.9% and 0.1% | 1.3% and 0.1% | 4.2% and 0.1% |
| CCCCCCCCCCCCOC(=O)CCN(CCCn1ccnc1)CCC(=O)OCCCCCCCCCCCC [LD93] | 1.8% | 4.2% | 3.9% | 24.6% | 15.8% | 10.8% |
| CCCCCCCCCCCCOC(=O)CCN(CCCN1CCOCC1)CCC(=O)OCCCCCCCCCCCC [LD91] | 0.2% | 0.2% | 0.2% | 0.2% | 0.2% | 0.2% |
| CCCCCCCCCCCCCCCOC(=O)CCN(CC)CCN(CC)CCC(=O)OCCCCCCCCCCCCCCC [LG61] | 0.4% | 0.5% | 0.4% | 0.4% | 0.4% | 0.5% |
| CCCCCCCCCCOC(=O)CCN(CCC(=O)OCCCCCCCCCC)C(CO)CO [LB25] | 0.8% | 2.4% | 2.6% | 3.3% | 2.3% | 1.8% |
| CCCCCCCCCCCCCCOC(=O)CCN(C)CCN(C)CCC(=O)OCCCCCCCCCCCCCC [LF60] | 0.4% | 0.4% | 0.5% | 0.5% | 0.5% | 0.5% |
| CCCCCCCCCCCCCCOC(=O)CCN(CCCCCCO)CCC(=O)OCCCCCCCCCCCCCC [LF36] | 0.1% | 0.1% | 0.1% | 0.1% | 0.1% | 0.1% |
| CCCCCCCCCCCCCCOC(=O)CC[N+](C)(CCCOC)CCC(=O)OCCCCCCCCCCCCCC.[I-] [QF1] | 0.4% | 0.3% | 0.4% | 0.3% | 0.3% | 0.3% |
| CCCCCCCCCCOC(=O)CCN(CCC(=O)OCCCCCCCCCC)C(C)(CO)CO [LB26] | 0.1% | 0.1% | 0.1% | 0.1% | 0.1% | 0.1% |
| CCCCCCCCCCCCCCOC(=O)CCN(CCOCC)CCC(=O)OCCCCCCCCCCCCCC [LF11] | 0.1% | 0.1% | 0.0% | 0.0% | 0.1% | 0.1% |
| CCCCCCCCCCCCCCCCCCOC(=O)CCN(CCC(=O)OCCCCCCCCCCCCCCCCCC)CCC1OCCO1 [LH6] | 0.0% | 0.0% | 0.0% | 0.0% | 0.0% | 0.0% |
| CCCCCCCCCCCCCCCOC(=O)CCN(CCC(=O)OCCCCCCCCCCCCCCC)CCc1ccc(OC)c(OC)c1 [LG17] | 0.4% | 0.3% | 0.1% | 0.0% | 0.3% | 0.3% |
| CCCCCCCCCCCCCCCOC(=O)CCN(CCC(=O)OCCCCCCCCCCCCCCC)C(CC)(CO)CO [LG34] |  |  | 1.4% | 0.8% |  |  |
